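Briefly, cells in 96-well plates were exposed to five compound concentrations for 48 h, and endpoints were estimated by linear interpolation. At the GI50, growth is halved.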 Active and inactive are the calls of the source. Rule as the data show it: active = GI50 up to about 1.1 µM and inactive = higher.
Key:
Experiment in all cases: NCI-60 cell line screen, 48 h
[1] = tested on: 786-0
[2] = tested on: A498
[3] = tested on: A549
[4] = tested on: ACHN
[5] = tested on: CAKI-1
[6] = tested on: CCRF-CEM
[7] = tested on: COLO 205
[8] = tested on: DLD-1
[9] = tested on: DMS-114
[10] = tested on: DMS-273
[11] = tested on: EKVX
[12] = tested on: HCC 2998
[13] = tested on: HCT-116
[14] = tested on: HCT-15
[15] = tested on: HL-60
[16] = tested on: HOP-18
[17] = tested on: HOP-62
[18] = tested on: HOP-92
[19] = tested on: HT-29
[20] = tested on: IGROV-1
[21] = tested on: K562
[22] = tested on: KM-20L2
[23] = tested on: KM12
[24] = tested on: LOX IMVI
[25] = tested on: LXFL 529
[26] = tested on: M14
[27] = tested on: M19-MEL
[28] = tested on: MOLT-4
[29] = tested on: Malme-3M
[30] = tested on: NCI-H460
[31] = tested on: NCI-H522
[32] = tested on: OVCAR-3
[33] = tested on: OVCAR-4
[34] = tested on: OVCAR-8
[35] = tested on: RPMI-8226
[36] = tested on: SF-268
[37] = tested on: SF-295
[38] = tested on: SF-539
[39] = tested on: SK-MEL-5
[40] = tested on: SK-OV-3
[41] = tested on: SN12C
[42] = tested on: SNB-19
[43] = tested on: SNB-75
[44] = tested on: SNB-78
[45] = tested on: SW-620
[46] = tested on: TK-10
[47] = tested on: U-251
[48] = tested on: UACC-257
[49] = tested on: UACC-62
[50] = tested on: XF498
[51] = tested on: DU-145
[52] = tested on: NCI-H226
[53] = tested on: NCI-H23
[54] = tested on: OVCAR-5
[55] = tested on: RXF 393
[56] = tested on: SK-MEL-28
[57] = tested on: SK-MEL-2
[58] = tested on: SR
[59] = tested on: UO-31

N#Cc1c(-c2ccccc2)cc(-c2cccs2)c(C#N)c1N
GI50 [1]: > 100 µM (inactive) | GI50 [2]: > 100 µM (inactive) | GI50 [3]: > 100 µM (inactive) | GI50 [4]: > 100 µM (inactive) | GI50 [5]: > 100 µM (inactive) | GI50 [6]: > 100 µM (inactive) | GI50 [7]: > 10 µM (inactive) | GI50 [8]: > 100 µM (inactive) | GI50 [9]: > 10 µM (inactive) | GI50 [10]: > 100 µM (inactive) | GI50 [11]: > 100 µM (inactive) | GI50 [12]: > 100 µM (inactive) | GI50 [13]: > 100 µM (inactive) | GI50 [14]: > 100 µM | GI50 [15]: > 100 µM (inactive) | GI50 [16]: 0.0134 µM (active) | GI50 [17]: > 100 µM (inactive) | GI50 [18]: > 100 µM (inactive) | GI50 [19]: > 100 µM (inactive) | GI50 [20]: > 10 µM (inactive) | GI50 [21]: > 100 µM (inactive) | GI50 [22]: > 100 µM (inactive) | GI50 [23]: > 100 µM (inactive) | GI50 [24]: > 100 µM (inactive) | GI50 [25]: > 100 µM (inactive) | GI50 [26]: > 100 µM (inactive) | GI50 [27]: > 10 µM (inactive) | GI50 [28]: > 100 µM (inactive) | GI50 [29]: > 100 µM (inactive) | GI50 [30]: > 100 µM (inactive) | GI50 [31]: > 100 µM (inactive) | GI50 [32]: > 100 µM (inactive) | GI50 [33]: > 100 µM (inactive) | GI50 [34]: > 100 µM (inactive) | GI50 [35]: > 100 µM (inactive) | GI50 [36]: > 100 µM (inactive) | GI50 [37]: > 100 µM (inactive) | GI50 [38]: > 100 µM (inactive) | GI50 [39]: > 100 µM (inactive) | GI50 [40]: > 10 µM (inactive) | GI50 [41]: > 100 µM (inactive) | GI50 [42]: > 100 µM (inactive) | GI50 [43]: 12.2 µM (inactive) | GI50 [44]: > 100 µM (inactive) | GI50 [45]: > 100 µM (inactive) | GI50 [46]: > 100 µM (inactive) | GI50 [47]: > 100 µM (inactive) | GI50 [48]: > 100 µM (inactive) | GI50 [49]: > 10 µM (inactive) | GI50 [50]: > 100 µM (inactive)

C[N+](C)(C)CC(=O)N/N=C/c1oc(-c2c(O)ccc3ccccc23)c(-c2c(O)ccc3ccccc23)c1[N+](=O)[O-]
GI50 [1]: 19.9 µM (inactive) | GI50 [2]: 16.9 µM (inactive) | GI50 [3]: 21.5 µM (inactive) | GI50 [4]: 3.31 µM (inactive) | GI50 [5]: 24.7 µM (inactive) | GI50 [6]: 15.4 µM (inactive) | GI50 [7]: 21.9 µM (inactive) | GI50 [8]: 14.1 µM (inactive) | GI50 [51]: 15.4 µM (inactive) | GI50 [11]: 21.9 µM (inactive) | GI50 [12]: 16 µM (inactive) | GI50 [13]: 12.2 µM (inactive) | GI50 [15]: 18.5 µM (inactive) | GI50 [16]: 15.9 µM (inactive) | GI50 [18]: 12.7 µM (inactive) | GI50 [19]: 13.2 µM (inactive) | GI50 [20]: 11 µM (inactive) | GI50 [21]: 12.6 µM (inactive) | GI50 [22]: 3.1 µM (inactive) | GI50 [23]: 11.5 µM (inactive) | GI50 [24]: 11.6 µM (inactive) | GI50 [25]: 14.8 µM (inactive) | GI50 [26]: 17.3 µM (inactive) | GI50 [27]: 20.4 µM (inactive) | GI50 [28]: 14.5 µM (inactive) | GI50 [29]: 11.4 µM (inactive) | GI50 [52]: 17.4 µM (inactive) | GI50 [53]: 16.4 µM (inactive) | GI50 [30]: 19.5 µM (inactive) | GI50 [31]: 15.8 µM (inactive) | GI50 [32]: 16.3 µM (inactive) | GI50 [33]: 21.5 µM (inactive) | GI50 [54]: 22.1 µM (inactive) | GI50 [34]: 19.1 µM (inactive) | GI50 [35]: 27 µM (inactive) | GI50 [55]: 11.2 µM (inactive) | GI50 [36]: 12.4 µM (inactive) | GI50 [37]: 17.1 µM (inactive) | GI50 [38]: 14.7 µM (inactive) | GI50 [56]: 21.3 µM (inactive) | GI50 [57]: 16.2 µM (inactive) | GI50 [39]: 8.87 µM (inactive) | GI50 [40]: 14.2 µM (inactive) | GI50 [41]: 24.2 µM (inactive) | GI50 [42]: 28.2 µM (inactive) | GI50 [43]: 14.7 µM (inactive) | GI50 [58]: 15.2 µM (inactive) | GI50 [45]: 21.5 µM (inactive) | GI50 [46]: 26.3 µM (inactive) | GI50 [47]: 15 µM (inactive) | GI50 [48]: 18.5 µM (inactive) | GI50 [49]: 1.53 µM (inactive) | GI50 [59]: 7.36 µM (inactive) | GI50 [50]: 20.6 µM (inactive)

Source: ChEMBL document CHEMBL1201862, “PubChem BioAssay data set” (2004)
